Assay results as given in patent publication US7411003B1, “Inhibition of Hepatitis B virus by cyclohexenone compounds from Antrodia camphorata” (Golden Biotechnology Corporation, priority 2007, dated 2008).

Experiments:
HbsAg = assay: Synthesis/secretion of HbsAg in hepatoma cell line, semi-quantitative ELISA; assay type: cell-based, hepatitis B virus; conditions: HepG2 2.2.1 cells, 22 hours
Method: (§1) The effects of cyclohexenone compounds of Antrodia camphorata purified from Example 1 on synthesis of HbsAg and HbeAg were tested in this example. The compound 4-hydroxy-2,3-dimethoxy-6-methyl-5(3,7,11-trimethyl-dodeca-2,6,10-trienyl)-cyclohex-2-enone from example 1 was added into the culture media of hepatoma cell line HepG2 2.2.1 to determine the synthesis of HbsAg and HbeAg with the semi-quantitative enzyme-linked immunoabsorbent assay (ELISA). These two makers were used to assess the effectiveness of cyclohexenone in HBV inhibition. […]
(§2) The HepG2 2.2.1 cells were cultivated in minimum essential medium (MEM, Gibco Co., USA) containing 12 essential amino acids, glutamine, 8 vitamins, and supplemented with 10% fetal bovine serum and 200 μg/ml of antibiotic G418 for 24 hours. […] The assay was based on formation of sandwich complexes of antibody-antigen-antibody/enzyme and stained with O-phenylenediamine (OPD) color development solution and the results were expressed as absorbance units at 450 nm. Specimens with absorbance values above the cut off value are taken as positive for HbsAg and HBeAg. […]

[1] = test system: hepatoma cell line HepG2 2.2.15; assay: In vitro cytotoxic test on hepatoma cell line, MTT assay, survival rates; assay type: cell-based, human; conditions: HepG2 2.2.1 cells, 10 μg/ml, 22 hours, compared with blank group
Method: Hepatoma cell inhibiting effects of cyclohexenone compounds of Antrodia camphorata from example 1 were assessed according to the anticancer-drug screening model of National Cancer Institute (NCI). The compound 4-hydroxy-2,3-dimethoxy-6-methyl-5(3,7,11-trimethyl-dodeca-2,6,10-trienyl)-cyclohex-2-enone from example 1 was added into the culture media of hepatoma cell line HepG2 2.2.15 to test the survival rates. Survival of cells was analyzed using MTT assay. HepG2 2.2.15 cell line was derived from human hepatoma, which can secrete infectious HBV.
MTT assay is commonly used to analyze cell proliferation, survival rate of viable cells and cytotoxicity. MTT (3[4,5-dimethylthiazol-2-yl]-2,5-diphenyltetrazolium bromide) is a yellow dye which can be converted to water-insoluble purple formazan on the reductive cleavage of its tetrazolium ring by the succinate tetrazolium reductase in mitrochondria of cells. The amount of formazan produced is used to detect the number of viable cells and calculate the survival rates.
The HepG2 2.2.1 cells were cultivated in minimum essential medium (MEM, Gibco Co., USA) containing 12 essential amino acids, glutamine, 8 vitamins, and supplemented with 10% fetal bovine serum and 200 μg/ml of antibiotic G418 for 24 hours. […] The absorbances were measured at 570 nm with an ELISA Reader and compared with that of the blank group to calculate the survival rates.

HbeAg = assay: Synthesis/secretion of HbeAg in hepatoma cell line, semi-quantitative ELISA; assay type: cell-based, hepatitis B virus; conditions: HepG2 2.2.1 cells, 22 hours
Method: as §1, §2

## COC1=C(OC)C(O)C(C/C=C(\C)CC/C=C(\C)CCC=C(C)C)C(C)C1=O (centres unmarked) [cyclohexenone from Antrodia camphorata, 4-hydroxy-2,3-dimethoxy-6-methyl-5(3,7,11-trimethyl-dodeca-2,6,10-trienyl)-cyclohex-2-enone]
HbsAg; 0.1 μg/ml
  Synthesis of HbsAg: below 60%
HbsAg; 10 μg/ml
  Synthesis of HbsAg (decrease could reach to as low as): 28%
[1]
  cell survival rates: lower than 81%
HbeAg; 0.1 μg/ml
  Synthesis of HbeAg: below 84%
HbeAg; 1 μg/ml
  Synthesis of HbeAg (decrease could reach to as low as): 57%
